Test results taken from PubChem BioAssay (NCI).
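Growth conditions: 96-well plates. Treatment: test compound, 48 hours, 5 concentrations. Analysis: linear interpolation between bracketing concentrations; unreached endpoints set to highest concentration. GI50 is the concentration that inhibits growth by half. The concentration for full growth arrest is given as TGI.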

Assays:
Assay in all cases: NCI-60 cell line screen, 48 h
MDA-MB-435 = test system: MDA-MB-435
NCI/ADR-RES ovarian = test system: NCI/ADR-RES ovarian
TK-10 renal = test system: TK-10 renal
COLO 205 colon = test system: COLO 205 colon
HCC-2998 colon = test system: HCC-2998 colon
HCT-15 colon = test system: HCT-15 colon
HOP-62 NSCLC = test system: HOP-62 NSCLC
M14 melanoma = test system: M14 melanoma
U251 CNS = test system: U251 CNS
SR leukemia = test system: SR leukemia

CCCCc1n(Cc2ccc3ccccc3c2)cc[n+]1Cc1ccc2ccccc2c1
GI50 (MDA-MB-435): 1.02 µM
TGI (MDA-MB-435): 2.26 µM
GI50 (NCI/ADR-RES ovarian): 15.8 µM
TGI (NCI/ADR-RES ovarian): 39.8 µM
GI50 (TK-10 renal): 1.37 µM
TGI (TK-10 renal): 2.76 µM

COC(=O)C1C=NNC1C(=O)OC (stereo not given)
TGI (COLO 205 colon): > 100 µM
TGI (HCC-2998 colon): > 100 µM
TGI (HCT-15 colon): > 100 µM
TGI (HOP-62 NSCLC): > 100 µM
TGI (M14 melanoma): > 100 µM
TGI (TK-10 renal): > 100 µM
TGI (U251 CNS): > 100 µM

CCN(CC)C(=O)N1CCN(C=S)CC1
TGI (COLO 205 colon): > 100 µM
TGI (HCC-2998 colon): > 100 µM
TGI (HCT-15 colon): > 100 µM
TGI (HOP-62 NSCLC): > 100 µM
TGI (M14 melanoma): > 100 µM
TGI (SR leukemia): > 100 µM
TGI (TK-10 renal): > 100 µM
TGI (U251 CNS): > 100 µM

COC(=O)C(CBr)CBr
TGI (COLO 205 colon): 3 µM
TGI (HCC-2998 colon): 10.9 µM
TGI (HCT-15 colon): 3.75 µM
TGI (HOP-62 NSCLC): 40.7 µM
TGI (M14 melanoma): 4.72 µM
TGI (MDA-MB-435): 10.1 µM
TGI (NCI/ADR-RES ovarian): 8.45 µM
TGI (TK-10 renal): 10.8 µM
TGI (U251 CNS): 10.3 µM

C=C1C2CC(OC(C)=O)C3(C)C(c4ccoc4)OC(=O)[C@@H](O)[C@]13OC1C[C@H](OC(C)=O)C(C)(C)[C@H](CC(=O)OC)[C@]12C (stereo not given in full)
TGI (COLO 205 colon): > 100 µM
TGI (HCC-2998 colon): > 100 µM
TGI (HCT-15 colon): > 100 µM
TGI (M14 melanoma): > 100 µM
TGI (TK-10 renal): > 100 µM
TGI (U251 CNS): > 100 µM

O=[N+]([O-])c1ccccc1C=NC12CC3CC(CC(C3)C1)C2
TGI (COLO 205 colon): > 100 µM
TGI (HCC-2998 colon): > 100 µM
TGI (HCT-15 colon): > 100 µM
TGI (HOP-62 NSCLC): > 100 µM
TGI (M14 melanoma): > 100 µM
TGI (TK-10 renal): > 100 µM
TGI (U251 CNS): > 100 µM

COC(=O)N/N=C(/CCC(=O)Nc1ccc(C)c(C)c1)CC(=O)C(C)(C)C
TGI (COLO 205 colon): > 100 µM
TGI (HCC-2998 colon): > 100 µM
TGI (HCT-15 colon): > 100 µM
TGI (HOP-62 NSCLC): > 100 µM
TGI (M14 melanoma): > 100 µM
TGI (TK-10 renal): > 100 µM
TGI (U251 CNS): > 100 µM

Cc1ccc(C(SCC(N)C(=O)O)(c2ccccc2)c2ccccc2)cc1 (stereo not given)
GI50 (COLO 205 colon): 0.098 µM
TGI (COLO 205 colon): 0.95 µM
GI50 (HCC-2998 colon): 0.246 µM
TGI (HCC-2998 colon): 15.2 µM
GI50 (HCT-15 colon): 0.218 µM
TGI (HCT-15 colon): > 49.4 µM
GI50 (HOP-62 NSCLC): 0.18 µM
TGI (HOP-62 NSCLC): > 49.7 µM
GI50 (M14 melanoma): 0.0247 µM
TGI (M14 melanoma): 0.0663 µM
GI50 (NCI/ADR-RES ovarian): 1.03 µM
TGI (NCI/ADR-RES ovarian): 6.03 µM
GI50 (SR leukemia): 0.0724 µM
TGI (SR leukemia): > 45.8 µM
GI50 (TK-10 renal): 1.22 µM
TGI (TK-10 renal): > 100 µM
GI50 (U251 CNS): 0.042 µM
TGI (U251 CNS): > 40.1 µM

C=C(CC(=O)O)C(=O)O (tested in a mixture with another compound)
GI50 (COLO 205 colon): > 50 µg/mL
TGI (COLO 205 colon): > 50 µg/mL
GI50 (HCT-15 colon): > 50 µg/mL
TGI (HCT-15 colon): > 50 µg/mL
GI50 (HOP-62 NSCLC): > 50 µg/mL
TGI (HOP-62 NSCLC): > 50 µg/mL
GI50 (M14 melanoma): > 50 µg/mL
TGI (M14 melanoma): > 50 µg/mL
GI50 (NCI/ADR-RES ovarian): > 50 µg/mL
TGI (NCI/ADR-RES ovarian): > 50 µg/mL
GI50 (SR leukemia): > 50 µg/mL
TGI (SR leukemia): > 50 µg/mL
GI50 (TK-10 renal): > 50 µg/mL
TGI (TK-10 renal): > 50 µg/mL
GI50 (U251 CNS): > 50 µg/mL
TGI (U251 CNS): > 50 µg/mL

O=C1Nc2ccccc2/C1=C\c1nc(C2CCN(S(=O)(=O)c3ccc(F)cc3)CC2)n2ccccc12
GI50 (COLO 205 colon): > 100 µM
TGI (COLO 205 colon): > 100 µM
GI50 (HCC-2998 colon): > 100 µM
TGI (HCC-2998 colon): > 100 µM
GI50 (HCT-15 colon): > 100 µM
TGI (HCT-15 colon): > 100 µM
GI50 (HOP-62 NSCLC): 2.06 µM
TGI (HOP-62 NSCLC): 6.37 µM
GI50 (M14 melanoma): > 100 µM
TGI (M14 melanoma): > 100 µM
GI50 (NCI/ADR-RES ovarian): 3.43 µM
TGI (NCI/ADR-RES ovarian): > 100 µM
GI50 (SR leukemia): > 100 µM
TGI (SR leukemia): > 100 µM
GI50 (TK-10 renal): 2.41 µM
TGI (TK-10 renal): 8.62 µM
GI50 (U251 CNS): 2.53 µM
TGI (U251 CNS): 11.4 µM

CC1C[C@]2(C[C@@H](C)C(=O)O2)O[C@@H]2CC3(C)[C@@H]4CCC5C(C)(C)OC(=O)C[C@H]6OO[C@]4(CC[C@]3(C)C12)CC56O (stereo not given in full)
TGI (HCC-2998 colon): > 100 µM
TGI (HCT-15 colon): > 100 µM
TGI (M14 melanoma): > 100 µM
TGI (SR leukemia): > 100 µM
TGI (TK-10 renal): > 100 µM
TGI (U251 CNS): > 100 µM

CCOC(=O)[C@H]1Nc2ccc([N+](=O)[O-])cc2C2c3ccccc3CC21 (stereo not given in full)
TGI (COLO 205 colon): > 100 µM
TGI (HCC-2998 colon): 44.2 µM
TGI (HCT-15 colon): 41.5 µM
TGI (HOP-62 NSCLC): 39 µM
TGI (M14 melanoma): 34.3 µM
TGI (SR leukemia): > 100 µM
TGI (TK-10 renal): 77.3 µM
TGI (U251 CNS): 33.1 µM

CC(=O)[CH-]C(=O)c1ccccc1.CC(=O)[CH-]C(=O)c1ccccc1.Cl.[O-]c1ccccn1.[O-]c1ccccn1.[Ti+4]
GI50 (HCC-2998 colon): > 100 µM
TGI (HCC-2998 colon): > 100 µM
GI50 (HCT-15 colon): > 100 µM
TGI (HCT-15 colon): > 100 µM
GI50 (HOP-62 NSCLC): > 100 µM
TGI (HOP-62 NSCLC): > 100 µM
GI50 (M14 melanoma): > 100 µM
TGI (M14 melanoma): > 100 µM
GI50 (U251 CNS): > 100 µM
TGI (U251 CNS): > 100 µM

CC12CO[C@@](C)(CC(S(=O)(=O)c3ccccc3)C1)O2 (stereo not given in full)
TGI (COLO 205 colon): > 100 µM
TGI (HCC-2998 colon): > 100 µM
TGI (HCT-15 colon): > 100 µM
TGI (HOP-62 NSCLC): > 100 µM
TGI (M14 melanoma): > 100 µM
TGI (SR leukemia): > 100 µM
TGI (U251 CNS): > 100 µM

O=S1(=O)CCCS(=O)(=O)C(c2ccccc2)=C1c1ccccc1
TGI (HCC-2998 colon): 32.4 µM
TGI (HCT-15 colon): > 100 µM
TGI (HOP-62 NSCLC): 96.8 µM
TGI (M14 melanoma): > 100 µM
TGI (SR leukemia): > 100 µM
TGI (TK-10 renal): > 100 µM
TGI (U251 CNS): > 100 µM

Cc1ccc(-c2cc(=O)c3cc(C)c(C)c(C(=O)O)c3o2)cc1N
TGI (COLO 205 colon): > 100 µM
TGI (HCT-15 colon): > 100 µM
TGI (M14 melanoma): > 100 µM
TGI (TK-10 renal): > 100 µM
TGI (U251 CNS): > 100 µM
